Experimental data reported in patent US7196110B2, “N-substituted tricyclic 3-aminopyrazoles as inhibitors for the treatment of cell proliferative disorders” (Janssen Phamaceutica N.V., priority 2002, dated 2007).
Where two headings read alike, the source gives them in different places.

Target: T1, PDGF-receptor beta enzyme comprising the tyrosine kinase domain (Homo sapiens, UniProt P09619)
T1 construct: from amino acid 545 to 1106 of GenBank Access NO: AAA36427
Experiment: Inhibition of PDGF-receptor kinase activity (cell-free, PLC1 peptide, 33P Flashplate)
Format: biochemical
Conditions: for inhibition at 10 µM: compound at 10 uM, read-out: Percent Inhibition @ 10 uM
How it was run: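 Recombinant kinase domain (aa 545–1106) phosphorylated a biotinylated PLC1 peptide with 5 μM ATP plus 33P-γ-ATP, in Tris pH 8, MgCl2, Na3VO4 and 1 mM DTT, for 60 min at 30 °C. Retained 33P was counted after washing. IC50 is the concentration halving activity versus no-inhibitor reactions.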

[1] = PDGF-R kinase activity, read-out: IC50
[2] = read-out: IC50 (μM) on PDGF-R kinase activity

T1 sequence (P09619 545-1106): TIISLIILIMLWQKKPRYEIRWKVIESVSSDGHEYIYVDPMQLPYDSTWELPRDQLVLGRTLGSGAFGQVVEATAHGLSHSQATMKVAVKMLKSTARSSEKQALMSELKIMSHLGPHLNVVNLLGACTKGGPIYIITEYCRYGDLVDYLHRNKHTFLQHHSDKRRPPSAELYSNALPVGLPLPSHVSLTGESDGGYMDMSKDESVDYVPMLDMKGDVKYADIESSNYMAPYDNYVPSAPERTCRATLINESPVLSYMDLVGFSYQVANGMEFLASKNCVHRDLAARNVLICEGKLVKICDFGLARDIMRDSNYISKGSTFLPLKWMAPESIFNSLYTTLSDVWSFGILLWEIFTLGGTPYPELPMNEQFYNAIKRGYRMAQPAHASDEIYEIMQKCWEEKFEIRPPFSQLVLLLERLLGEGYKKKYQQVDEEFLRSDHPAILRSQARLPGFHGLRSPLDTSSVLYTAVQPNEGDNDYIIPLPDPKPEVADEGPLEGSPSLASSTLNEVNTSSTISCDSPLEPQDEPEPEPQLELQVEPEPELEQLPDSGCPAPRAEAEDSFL

Compound | inhibition at 10 µM (PDGF-R kinase activity) | IC50 [1] | IC50 [2]
CCOc1cccc(Nc2[nH]nc3c2Cc2c(OCCCO)cccc2-3)c1 [Compound 441, 3-[3-(3-Ethoxy-phenylamino)-2,4-dihydro-indeno[1,2-c]pyrazol-5-yloxy]-propan-1-ol] | 96% | 0.206 µM | –
COc1cc2c(cc1OC)-c1n[nH]c(Nc3cccnc3Cl)c1C2 [Compound 377, (2-Chloro-pyrid-3-yl)-(6,7-dimethoxy-2,4-dihydro-indeno[1,2-c]pyrazol-3-yl)-amine] | 99% | 0.00857 µM | –
CCC1c2cc(OC)c(OC)cc2-c2c1c(Nc1cccc(Br)c1)nn2C(=O)OCCOCCOCCO (stereo not drawn) [Compound 547, 3-(3-Bromo-phenylamino)-4-ethyl-6,7-dimethoxy-4H-indeno[1,2-c]pyrazole-1-carboxylic acid 2-[2-(2-hydroxy-ethoxy)-ethoxy]-ethyl ester] | 68.5% | – | –
COc1cccc2c1Cc1c-2n[nH]c1Nc1cccc(S(N)(=O)=O)c1 [Compound 418, 3-(5-Methoxy-2,4-dihydro-indeno[1,2-c]pyrazol-3-ylamino)-benzenesulfonamide] | 82.5% | 0.892 µM | –
COc1cc2c(cc1OC)-c1n[nH]c(Nc3ccccc3C)c1C2 [Compound 31, (6,7-Dimethoxy-2,4-dihydro-indeno[1,2-c]pyrazol-3-yl)-o-tolyl-amine] | 59% | 0.115 µM | –
COc1cccc2c1Cc1c-2n[nH]c1Nc1cccnc1 [Compound 146, (5-Methoxy-2,4-dihydro-indeno[1,2-c]pyrazol-3-yl)-pyridin-3-yl-amine] | 78.5% | 0.16 µM | –
COc1ccc(Cl)cc1Nc1[nH]nc2c1Cc1ccccc1-2 [Compound 342, (5-Chloro-2-methoxy-phenyl)-(2,4-dihydro-indeno[1,2-c]pyrazol-3-yl)-amine] | 56.5% | 0.0267 µM | –
CCOc1cc2c(cc1OCC)C(C)c1c-2n[nH]c1Nc1ccc(F)c(Cl)c1 (stereo not drawn) [Compound 347] | 90.5% | 0.545 µM | –
Clc1ccc2c(c1)Cc1c-2n[nH]c1Nc1ccccc1 [Compound 21, (6-Chloro-2,4-dihydro-indeno[1,2-c]pyrazol-3-yl)-phenyl-amine] | 103% | 0.121 µM | –
COc1ccccc1Nc1[nH]nc2c1Cc1cc(OC)c(OC)cc1-2 [Compound 27, (6,7-Dimethoxy-2,4-dihydro-indeno[1,2-c]pyrazol-3-yl)-(2-methoxy-phenyl)-amine] | 71% | 0.655 µM | –
COc1cc2c(cc1OC)-c1c(c(Nc3cccc(F)c3)nn1C(=O)Oc1ccc(F)cc1)C2 [Compound 500, 3-(3-Fluoro-phenylamino)-6,7-dimethoxy-4H-indeno[1,2-c]pyrazole-1-carboxylic acid 4-fluoro-phenyl ester] | 80.5% | 0.492 µM | –
COc1cccc(Nc2[nH]nc3c2Cc2cc(OC(C)C)c(OC(C)C)cc2-3)c1 [Compound 168, (6,7-Diisopropoxy-2,4-dihydro-indeno[1,2-c]pyrazol-3-yl)-(3-methoxy-phenyl)-amine] | 91% | 0.0688 µM | –
COC(=O)c1cccc(Nc2[nH]nc3c2Cc2cc4c(cc2-3)OCO4)c1 [Compound 127, 3-(2,9-Dihydro-5,7-dioxa-2,3-diaza-cyclopenta[a]-s-indacen-1-ylamino)-benzoic acid methyl ester] | 89% | 0.421 µM | –
COc1cc2c(cc1OC)C(C(C)C)c1c-2n[nH]c1Nc1cccc(Cl)c1 (stereo not drawn) [Compound 540, (3-Chloro-phenyl)-(4-isopropyl-6,7-dimethoxy-2,4-dihydro-indeno[1,2-c]pyrazol-3-yl)-amine] | 47% | 14.7 µM | –
Brc1ccc2c(c1)Cc1c-2n[nH]c1Nc1cccnc1 [Compound 152, (6-Bromo-2,4-dihydro-indeno[1,2-c]pyrazol-3-yl)-pyridin-3-yl-amine] | 80% | 0.174 µM | –
COc1cc2c(cc1OC)-c1n[nH]c(Nc3cccc(C(=O)O)c3)c1C2 [Compound 115, 3-(6,7-Dimethoxy-2,4-dihydro-indeno[1,2-c]pyrazol-3-ylamino)-benzoic acid] | 82% | 3.06 µM | –
c1ccc(Nc2[nH]nc3c2Cc2ccccc2-3)cc1 [Compound 1] | 91% | 0.317 µM | –
Fc1ccc(Nc2[nH]nc3c2Cc2sccc2-3)cc1Cl [Compound 404, (3-Chloro-4-fluoro-phenyl)-(5,7-dihydro-1-thia-4,5-diaza-cyclopenta[a]pentalen-6-yl)-amine] | 74.5% | 1.11 µM | –

Compound | inhibition at 10 µM (PDGF-R kinase activity) | IC50 [1] | IC50 [2]
CCc1ccccc1Nc1[nH]nc2c1Cc1cc(OC)c(OC)cc1-2 [Compound 58, (6,7-Dimethoxy-2,4-dihydro-indeno[1,2-c]pyrazol-3-yl)-(2-ethyl-phenyl)-amine] | 40% | 8.52 µM | –
COc1cccc2c1Cc1c-2n[nH]c1Nc1cccc(OC(F)(F)F)c1 [Compound 149, (5-Methoxy-2,4-dihydro-indeno[1,2-c]pyrazol-3-yl)-(3-trifluoromethoxy-phenyl)-amine] | 27.5% | 8.37 µM | –
CCOC(=O)c1ccc(Nc2[nH]nc3c2Cc2cc(OC)c(OC)cc2-3)cc1 [Compound 10, 4-(6,7-Dimethoxy-2,4-dihydro-indeno[1,2-c]pyrazol-3-ylamino)-benzoic acid ethyl ester] | 68% | 2.07 µM | –
CNC(=S)n1nc2c(c1Nc1cccc(F)c1)Cc1cc(OC)c(OC)cc1-2 [Compound 580, 3-(3-Fluoro-phenylamino)-6,7-dimethoxy-4H-indeno[1,2-c]pyrazole-2-carbothioic acid methylamide] | 93% | – | 0.126 µM
CC1c2ccccc2-c2n[nH]c(Nc3ccc(F)cc3)c21 (stereo not drawn) [Compound 106, (4-Fluoro-phenyl)-(4-methyl-2,4-dihydro-indeno[1,2-c]pyrazol-3-yl)-amine] | 38% | 1.05 µM | –
COc1cc2c(cc1OC)-c1n[nH]c(NCCN3CCOCC3)c1C2 [Compound 69, (6,7-Dimethoxy-2,4-dihydro-indeno[1,2-c]pyrazol-3-yl)-(2-morpholin-4-yl-ethyl)-amine] | 18% | – | –
COCCOC(=O)n1nc(Nc2cccc(F)c2)c2c1-c1cc(OC)c(OC)cc1C2 [Compound 438, 3-(3-Fluoro-phenylamino)-6,7-dimethoxy-4H-indeno[1,2-c]pyrazole-1-carboxylic acid 2-methoxy-ethyl ester] | 77.5% | 0.992 µM | –
CC(C)Oc1cc2c(cc1OC(C)C)C(C)c1c-2n[nH]c1Nc1cccc(Br)c1 (stereo not drawn) [Compound 353, (3-Bromo-phenyl)-(6,7-diisopropoxy-4-methyl-2,4-dihydro-indeno[1,2-c]pyrazol-3-yl)-amine] | 88% | 0.359 µM | –
COc1cc2c(cc1OC)-c1n[nH]c(Nc3cccc(C(=O)NCCCN4CCCC4)c3)c1C2 [Compound 298, 3-(6,7-Dimethoxy-2,4-dihydro-indeno[1,2-c]pyrazol-3-ylamino)-N-(3-pyrrolidin-1-yl-propyl)-benzamide] | 92% | 0.408 µM | –
COc1cc2c(cc1OC)-c1nn(CCO)c(Nc3cccc(F)c3)c1C2 [Compound 573, 2-[3-(3-Fluoro-phenylamino)-6,7-dimethoxy-4H-indeno[1,2-c]pyrazol-2-yl]-ethanol] | 52% | – | –
COc1ccc(Nc2[nH]nc3c2Cc2ccc(C)cc2-3)cc1 [Compound 183, (4-Methoxy-phenyl)-(7-methyl-2,4-dihydro-indeno[1,2-c]pyrazol-3-yl)-amine] | 53% | 0.545 µM | –
COc1cc2c(cc1OC)-c1n[nH]c(Nc3cc(Cl)cc(Cl)c3)c1C2 [Compound 19, (3,5-Dichloro-phenyl)-(6,7-dimethoxy-2,4-dihydro-indeno[1,2-c]pyrazol-3-yl)-amine] | 91% | 0.174 µM | –
Cc1ccc2c(c1)-c1n[nH]c(NCc3cc(Cl)cc(Cl)c3)c1C2 [Compound 313, (3,5-Dichloro-benzyl)-(7-methyl-2,4-dihydro-indeno[1,2-c]pyrazol-3-yl)-amine] | 62.5% | 3.5 µM | –
COc1cc(Nc2[nH]nc3c2Cc2c(OC)cccc2-3)cc(C(F)(F)F)c1 [Compound 417, (5-Methoxy-2,4-dihydro-indeno[1,2-c]pyrazol-3-yl)-(3-methoxy-5-trifluoromethyl-phenyl)-amine] | 27.5% | 12.2 µM | –
COC(=O)C(NC(=O)n1nc2c(c1Nc1cccc(F)c1)Cc1cc(OC)c(OC)cc1-2)C(C)C (stereo not drawn) [Compound 413, 2-{[3-(3-Fluoro-phenylamino)-6,7-dimethoxy-4H-indeno[1,2-c]pyrazole-2-carbonyl]-amino}-3-methyl-butyric acid methyl ester] | 71% | 1.14 µM | –
COc1cc2c(cc1OC)-c1n[nH]c(NCc3cccc(Cl)c3Cl)c1C2 [Compound 326, (2,3-Dichloro-benzyl)-(6,7-dimethoxy-2,4-dihydro-indeno[1,2-c]pyrazol-3-yl)-amine] | 82% | 0.267 µM | –
CCC1c2cc(OC)c(OC)cc2-c2n[nH]c(Nc3cccnc3Cl)c21 (single isomer, unassigned) [Compound 607, (2-Chloro-pyridin-3-yl)-(4-ethyl-6,7-dimethoxy-2,4-dihydro-indeno[1,2-c]pyrazol-3-yl)-amine] | 78% | – | 0.547 µM
COc1cc2c(cc1OC)-c1nn(C(=O)Oc3ccc(F)cc3)c(Nc3cccc(F)c3)c1C2 [Compound 503, 3-(3-Fluoro-phenylamino)-6,7-dimethoxy-4H-indeno[1,2-c]pyrazole-2-carboxylic acid 4-fluoro-phenyl ester] | 103% | 0.0451 µM | –
